Reference: patent US10287301B2 (Achillion Pharmaceuticals, Inc., priority 2015, dated 2019)

Target: Human Factor D (Homo sapiens (Human), UniProt P00746)
Test: Human Factor D Assay
Assay type: biochemical
Conditions: Human Factor D 80 nM, substrate Z-L-Lys-SBzl; read-out: IC50
Summary of the method: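 First, compound at various concentrations is mixed with 80 nM (final) human serum Factor D in 50 mM Tris, 1M NaCl, pH 7.5 for 5 min at room temperature.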

Sequence of Human Factor D (P00746 26-253): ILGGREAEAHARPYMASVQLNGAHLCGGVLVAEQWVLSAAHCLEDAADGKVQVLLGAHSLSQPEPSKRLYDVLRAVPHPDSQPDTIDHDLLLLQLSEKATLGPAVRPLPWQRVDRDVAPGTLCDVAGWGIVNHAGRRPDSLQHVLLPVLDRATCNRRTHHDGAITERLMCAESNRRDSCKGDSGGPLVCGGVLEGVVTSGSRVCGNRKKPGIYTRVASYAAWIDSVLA

SMILES	IC50 [µM]
CC(=O)c1cn(CC(=O)N2C[C@H](F)C[C@H]2C(=O)Nc2cccc(-c3ccccc3Cl)c2F)c2ccc(N3CCN(c4ncc(F)cn4)CC3)cc12 [Compound 32, (2S,4R)-1-(2-(3-acetyl-5-(4-(5-fluoropyrimidin-2-yl)piperazin-1-yl)-1H-indol-1-yl)acetyl)-N-(2′-chloro-2-fluorobiphenyl-3-yl)-4-fluoropyrrolidine-2-carboxamide]	< 1
COc1ncc(-c2ccc3c(c2)c(C(N)=O)nn3CC(=O)N2C[C@H](F)C[C@H]2C(=O)Nc2cccc(Cl)n2)cn1 [Compound 30, 1-(2-((2S,4R)-2-(6-chloropyridin-2-ylcarbamoyl)-4-fluoropyrrolidin-1-yl)-2-oxoethyl)-5-(2-methoxypyrimidin-5-yl)-1H-indazole-3-carboxamide]	< 1
CC(=O)c1cn(CC(=O)N2C[C@H](F)C[C@H]2C(=O)Nc2nc(-c3ccccc3Cl)ns2)c2ccc(-c3ccnnc3)cc12 [Compound 99, (2S,4R)-1-(2-(3-acetyl-5-(pyridazin-4-yl)-1H-indol-1-yl)acetyl)-N-(3-(2-chlorophenyl)-1,2,4-thiadiazol-5-yl)-4-fluoropyrrolidine-2-carboxamide]	< 1
NC(=O)c1nn(CC(=O)N2C[C@H](F)C[C@H]2C(=O)Nc2c[nH]nc2-c2ccc(Cl)cc2Cl)c2ccc(-c3ccnnc3)cc12 [Compound 94, 1-(2-((2S,4R)-2-(3-(2,4-dichlorophenyl)-1H-pyrazol-4-ylcarbamoyl)-4-fluoropyrrolidin-1-yl)-2-oxoethyl)-5-(pyridazin-4-yl)-1H-indazole-3-carboxamide]	> 10

Same assay, conditions: Human Factor D assay of Example 8; Table 2; read-out: IC50

SMILES	IC50 [µM]
CC(=O)c1nn(CC(=O)N2C[C@H](F)C[C@H]2C(=O)Nc2cccc(-c3c(F)c(F)c(F)c(F)c3F)c2F)c2ccc(-c3cnc(C)nc3)cc12 [Compound 272, (2S,4R)-1-(2-(3-acetyl-5-(2-methylpyrimidin-5-yl)-1H-indazol-1-yl)acetyl)-4-fluoro-N-(2,2′,3′,4′,5′,6′-hexafluorobiphenyl-3-yl)pyrrolidine-2-carboxamide]	< 1
Cc1ncc(-c2ccc3c(c2)c(C(N)=O)nn3CC(=O)N2[C@@H]3C[C@@H]3C[C@H]2C(=O)Nc2cccc(Br)n2)cn1 [Compound 202, 1-(2-((1R,3S,5R)-3-(6-bromopyridin-2-ylcarbamoyl)-2-azabicyclo[3.1.0]hexan-2-yl)-2-oxoethyl)-5-(2-methylpyrimidin-5-yl)-1H-indazole-3-carboxamide]	< 1
CC(=O)c1nn(CC(=O)N2CCS[C@H]2C(=O)Nc2cccc(Br)n2)c2ccc(-c3cnc(C)nc3)cc12 [Compound 308, (S)-3-(2-(3-acetyl-5-(2-methylpyrimidin-5-yl)-1H-indazol-1-yl)acetyl)-N-(6-bromopyridin-2-yl)thiazolidine-2-carboxamide]	< 1
CC(=O)c1nn(CC(=O)N2C[C@H](F)C[C@H]2C(=O)Nc2cccc(Br)n2)c2ccc(-c3cnc(N)nc3)cc12 [Compound 260, (2S,4R)-1-(2-(3-acetyl-5-(2-aminopyrimidin-5-yl)-1H-indazol-1-yl)acetyl)-N-(6-bromopyridin-2-yl)-4-fluoropyrrolidine-2-carboxamide]	< 1
NC(=O)c1nn(CC(=O)N2C[C@H](F)C[C@H]2C(=O)Nc2cccc(-c3ccccc3Cl)c2F)cc1-c1ccsc1 [Compound 208, 1-(2-((2S,4R)-2-(2′-chloro-2-fluorobiphenyl-3-ylcarbamoyl)-4-fluoropyrrolidin-1-yl)-2-oxoethyl)-4-(thiophen-3-yl)-1H-pyrazole-3-carboxamide]	1 to 10
CC(=O)c1nn(CC(=O)N2[C@@H]3C[C@@H]3C[C@H]2C(=O)Nc2cccc(OC(F)(F)F)c2F)c2ccc(-c3cnc4ccnn4c3)cc12 [Compound 239, (1R,3S,5R)-2-(2-(3-acetyl-5-(pyrazolo[1,5-a]pyrimidin-6-yl)-1H-indazol-1-yl)acetyl)-N-(2-fluoro-3-(trifluoromethoxy)phenyl)-2-azabicyclo[3.1.0] hexane-3-carboxamide]	< 1
COCCN(C)CCN1CC(NC(=O)[C@@H]2C[C@@H](F)CN2C(=O)Cn2nc(C(C)=O)c3cc(-c4cnc(C)nc4)ccc32)CC1=O (stereo partly drawn) [Compound 254, (2S,4R)-1-(2-(3-acetyl-5-(2-methylpyrimidin-5-yl)-1H-indazol-1-yl)acetyl)-4-fluoro-N-(1-(2-((2-methoxyethyl)(methyl)amino)ethyl)-5-oxopyrrolidin-3-yl)pyrrolidine-2-carboxamide]	> 10

Same assay, conditions: Human Factor D, Table 3; read-out: IC50

SMILES	IC50 [µM]
CC(=O)c1nn(CC(=O)N2C[C@H](F)C[C@H]2C(=O)Nc2cccc(Br)n2)c2ccc(-c3cnc4cc(C(F)(F)F)nn4c3)cc12 [Compound 684, (2S,4R)-1-(2-(3-Acetyl-5-(2-(trifluoromethyl)pyrazolo[1,5-a]pyrimidin-6-yl)-1H-indazol-1-yl)acetyl)-N-(6-bromopyridin-2-yl)-4-fluoropyrrolidine-2-carboxamide]	< 1
CC(=O)c1nn(CC(=O)N2C[C@H](F)C[C@H]2C(=O)Nc2cccc(Br)n2)c2c(C)cc(-c3cnc(C)nc3)cc12 [Compound 608, (2S,4R)-1-(2-(3-Acetyl-7-methyl-5-(2-methylpyrimidin-5-yl)-1H-indazol-1-yl)acetyl)-N-(6-bromopyridin-2-yl)-4-fluoropyrrolidine-2-carboxamide]	< 1
CC(=O)c1nn(CC(=O)N2CCC[C@H]2C(=O)Nc2cccc(C)n2)c2ccc(-c3cnc4ncccn34)cc12 [Compound 708, (S)-1-(2-(3-Acetyl-5-(imidazo[1,2-a]pyrimidin-3-yl)-1H-indazol-1-yl)acetyl)-N-(6-methylpyridin-2-yl)pyrrolidine-2-carboxamide]	< 1
CC(=O)c1nn(CC(=O)N2C[C@H](F)C[C@H]2C(=O)Nc2cccc(S(=O)(=O)C(F)(F)F)c2)c2ccc(-c3cnc4cc(C)nn4c3)cc12 [Compound 752, (2S,4R)-1-(2-(3-acetyl-5-(2-methylpyrazolo[1,5-a]pyrimidin-6-yl)-1H-indazol-1-yl)acetyl)-4-fluoro-N-(3-((trifluoromethyl)sulfonyl)phenyl) pyrrolidine-2-carboxamide]	< 1
CC(=O)c1nn(CC(=O)N2C[C@H](F)C[C@H]2C(=O)NCC23CC4CC(CC(C4)C2)C3)c2ccc(-c3cnc(C)nc3)cc12 [Compound 612, (2S,4R)-1-(2-(3-Acetyl-5-(2-methylpyrimidin-5-yl)-1H-indazol-1-yl)acetyl)-N-(((3S,5S,7S)-adamantan-1-yl)methyl)-4-fluoropyrrolidine-2-carboxamide]	< 1
CC(=O)c1nn(CC(=O)N2[C@H](C(=O)NCC(F)=C(C)C)C[C@@]3(C)C[C@@H]23)c2ccc(-c3cnc(C)nc3)cc12 [Compound 621, (1R,3S,5R)-2-(2-(3-acetyl-5-(2-methylpyrimidin-5-yl)-1H-indazol-1-yl)acetyl)-N-(2-fluoro-3-methylbut-2-en-1-yl)-5-methyl-2-azabicyclo[3.1.0] hexane-3-carboxamide]	< 1
CC(=O)c1nn(CC(=O)N2C[C@H](F)C[C@@H]2C(=O)Nc2nc(Br)ccc2C(=O)O)c2ccc(-c3cnc(C)nc3)cc12 [Compound 648, 2-((2R,4R)-1-(2-(3-Acetyl-5-(2-methylpyrimidin-5-yl)-1H-indazol-1-yl)acetyl)-4-fluoropyrrolidine-2-carboxamido)-6-bromonicotinic acid]	> 10
CC(=O)c1nn(CC(=O)N2[C@H](C(=O)Nc3ccn(CC(F)(F)F)n3)C[C@@]3(C)C[C@@H]23)c2ccc(-c3cnc(C)nc3)cc12 [Compound 625]	< 1
CC(=O)c1nn(CC(=O)N2CC[C@H]2C(=O)Nc2cccc(C)n2)c2ccc(-c3cnc4n3CCCC4)cc12 [Compound 705, (S)-1-(2-(3-Acetyl-5-(5,6,7,8-tetrahydroimidazo[1,2-a]pyridin-3-yl)-1H-indazol-1-yl)acetyl)-N-(6-methylpyridin-2-yl)azetidine-2-carboxamide]	> 10

Same assay, conditions: Table 3; Human Factor D 80 nM, substrate Z-L-Lys-SBzl; read-out: IC50 (Stars)

SMILES	IC50 [µM]
CC(=O)c1nn(CC(=O)N2C[C@H](F)C[C@H]2C(=O)Nc2ccc(F)cn2)c2ccc(-c3cnc(C)nc3)cc12 [Compound 407, (2S,4R)-1-(2-(3-Acetyl-5-(2-methylpyrimidin-5-yl)-1H-indazol-1-yl)acetyl)-4-fluoro-N-(5-fluoropyridin-2-yl)pyrrolidine-2-carboxamide]	< 1
CC(=O)c1nn(CC(=O)N2CC3CC2(C(=O)Nc2cccc(Br)n2)C3)c2ccc(-c3cnc(C)nc3)cc12 [Compound 462, 2-(2-(3-acetyl-5-(2-Methylpyrimidin-5-yl)-1H-indazol-1-yl)acetyl)-N-(6-bromopyridin-2-yl)-2-azabicyclo[2.1.1]hexane-1-carboxamide]	< 1
Cc1cccc(NC(=O)[C@@H]2[C@H]3CC[C@H](C3)N2C(=O)Cn2cc(C(N)=O)c3cc(-c4ccc5c(c4)CCCC5)ccc32)n1 [Compound 515, 1-(2-((1R,3S,4S)-3-(6-Methylpyridin-2-ylcarbamoyl)-2-azabicyclo[2.2.1]heptan-2-yl)-2-oxoethyl)-5-(5,6,7,8-tetrahydronaphthalen-2-yl)-1H-indole-3-carboxamide]	> 10
CC(=O)c1nn(CC(=O)N2C[C@H](F)C[C@H]2C(=O)Nc2ncc(F)cc2Br)c2ccc(-c3cnc(C)nc3)cc12 [Compound 408, (2S,4R)-1-(2-(3-Acetyl-5-(2-methylpyrimidin-5-yl)-1H-indazol-1-yl)acetyl)-N-(3-bromo-5-fluoropyridin-2-yl)-4-fluoropyrrolidine-2-carboxamide]	< 1

Same assay, conditions: read-out: IC50 (Stars)

SMILES	IC50 [µM]
Cc1ncc(-c2ccc3c(c2)c(C(C)O)nn3CC(=O)N2C[C@H](F)C[C@H]2C(=O)Nc2cccc(Br)n2)cn1 (stereo partly drawn) [Compound 376, (2S,4R)-N-(6-bromopyridin-2-yl)-4-fluoro-1-(2-(3-(1-hydroxyethyl)-5-(2-methylpyrimidin-5-yl)-1H-indazol-1-yl)acetyl)pyrrolidine-2-carboxamide]	1 to 10
